Publication PMC7216467, “Evaluation of neuroprotective and anti-amnesic effects of Elaeagnus umbellata Thunb. On scopolamine-induced memory impairment in mice” (BMC Complementary Medicine and Therapies, 2020)

Key:
[1] = target: T1, Acetyl cholinesterase (Electron-eel Type, VI-S) (Electrophorus electricus, UniProt O42275); assay: biochemical; assay type: biochemical
T1 construct: purchased Sigma-Aldrich, Germany
Protocol: Ellman assay was used to evaluate E. umbellata fruit extracts and isolated compounds for their anticholinesterase potentials. About 205 μL extract/compound solutions and 5 μL of AChE (0.03 U/mL)/BChE (0.01 U/mL) along with catalyst DTNB (5 μL) were taken in a cuvette and kept at 30 °C in hot water bath for 15 min. […] As a negative control solution all the above mentioned components except extracts and isolated compounds were mixed in the mentioned order.
V is inhibitor dependent rate of reaction while, Vmax is inhibitor independent rate of reaction.

mice = settings: Swiss albino, mouse, in vivo, po, 72 h
Protocol: All animals were then treated orally with different doses of CHF. […] Immediately after dosing, the mice were observed continuously for 4 h for symptoms of toxicity such as motor activity, convulsions, muscle spasm, tremors, sedation, lacrimation, hypnosis, diarrhoea, salivation, and loss of righting reflex. Mice were then kept under observation up to 72 h for any mortality. The CHF. […] Therefore, according to OECD guidelines, CHF.

[2] = system: scopolamine-induced cognitive impairment in mice; assay: Y-maze test, scopolamine-induced amnesia; assay type: in vivo
Protocol: (§1) After the acclimatization period, in scopolamine-induced amnesia test the Albino male mice were randomly divided into six groups (n = 6) to study the effect of CHF. […] The doses of tested solutions of CHF. […] The treatments were continued for 8 days. In the Y-maze and Novel object recognition tests, scopolamine (1 mg/kg, i.p.) was given to the different groups only on the 8th day, 30 min after the respective treatments, to induce cognitive deficit in mice. One hour after administration of the drugs all animals were subjected to Y-maze and Novel object recognition test following standard procedure.
The Y-Maze test was designed to evaluate the short term memory in experimental mice using reported procedure. Y-maze apparatus is Y shaped with three arms of equivalent size, labelled as A, B, and C. Each arm was 20 cm long, 6 cm wide and 15.5 cm high and was oriented at an angle of 120° from the other two. For each animal the Y maze testing was carried out for 5 min. Mice were placed in one arm, and the order and number of arm entries were recorded. An arm entry was considered to be complete when the hind paws of the mice was completely inside a given arm while alternation was defined as consecutive entries by a mouse into the three different arms. The arena was cleaned using 70% v/v ethanol between each trial to avoid olfactory cues. The escape latency (second) on day 1–5 were recorded for all animals. At the end of 5th day, the spontaneous alteration behavior study was conducted. In spontaneous alteration study, each animal was placed at the center of the Y-Maze apparatus and allowed to move freely through the maze. The series of arm entries were visually recorded. To start behavioral test the mice was set in one arm and recorded the number of arm entries, same arm returns (SAR), and alternate arm returns (AAR) were measured. Percent spontaneous alternation performance (SAP) was calculated by the following formula: 5 %SAP=Active alterationstotal alterations/Possible alterationstotalarmentries−2x100

[3] = system: scopolamine-induced cognitive impairment in mice; assay: Novel object recognition test, scopolamine-induced amnesia; assay type: in vivo
Protocol: as §1
The detail methodology published, was followed while performing the novel object recognition (NORT) test. NORT consisting of habituation, sample, and test phases. On the day before test, mice were allowed to explore the box (without any object) for 2 min. On the day of test after habituation the sample phase was carried out 60 min after the last treatment on the 8th day. In sample phase each mouse was placed in an open field with two identical objects (plastic ball) for 5 min. The mouse was then returned to its home cage. The apparatus was comprised of a white coloured plywood box (40 cm × 40 cm × 66 cm) with a network floors that could be effortlessly cleaned (with 70%v/v ethanol) after every trial. The apparatus was illuminated by a 60 W light suspended 50 cm over the crate. The arena and objects were cleaned with 70% v/v ethanol between trials to avoid olfactory cues. For short-term memory, the test phase was performed 5 min after the sample phase. In the test phase, each mouse was placed again in the open field in which one of the identical objects had been replaced with a novel object (plastic square). The location of the object was counterbalanced so that one half of the mice in each group saw the novel object on the left side of the box arena, and the other half saw the novel object on the right side of the box arena to eliminate bias of sides. NORT can also be used for encoding and retrieval of spatial memory (long-term memory). A wash-out period of 5 days was allowed before the NORT to assess long-term memory in mice. The procedure was the same as that for short-term memory except that mice were presented in the test phase 24 h after the sample phase exposure. The time spent exploring each object in each phase was recorded manually using a stopwatch. A mouse was scored as exploring when its head was oriented towards the object within a distance of 2 cm or when the nose was in contact with the object. Parameters including the time (in seconds) spent exploring familiar (F) object, time (in seconds) spent exploring the novel (N) object, and total time (in seconds) spent exploring both objects (N + F) were measured separately.

AChE = target: T2, AChE (Mus musculus, UniProt P21836); assay type: in vivo; settings: ex vivo, NORT animals, vs scopolamine treated group
T2 construct: supernatants were collected from homogenized part of brain tissues; from tissue; host or cells: mouse frontal cortex and hippocampus homogenate supernatant
T2 sequence (P21836 32-614): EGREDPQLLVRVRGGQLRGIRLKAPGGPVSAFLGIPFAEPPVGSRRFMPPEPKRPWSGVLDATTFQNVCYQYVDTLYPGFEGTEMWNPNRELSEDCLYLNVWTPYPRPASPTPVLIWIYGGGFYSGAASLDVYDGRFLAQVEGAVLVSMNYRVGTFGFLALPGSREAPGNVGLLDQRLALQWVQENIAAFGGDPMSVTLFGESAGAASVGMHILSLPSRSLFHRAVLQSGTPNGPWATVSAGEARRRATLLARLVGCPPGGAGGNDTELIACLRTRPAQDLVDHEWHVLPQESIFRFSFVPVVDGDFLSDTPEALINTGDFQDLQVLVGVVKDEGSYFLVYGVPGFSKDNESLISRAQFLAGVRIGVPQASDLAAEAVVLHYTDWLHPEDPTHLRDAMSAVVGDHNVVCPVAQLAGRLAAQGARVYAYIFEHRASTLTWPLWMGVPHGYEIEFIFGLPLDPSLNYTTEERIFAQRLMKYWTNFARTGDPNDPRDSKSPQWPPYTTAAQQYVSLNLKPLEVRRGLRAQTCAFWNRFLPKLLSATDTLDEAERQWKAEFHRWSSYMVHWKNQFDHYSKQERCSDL
Protocol: (§2) The frontal cortex (FC) and hippocampus (HC) were dissected out in ice cold 0.1 M phosphate buffer saline (pH 8.0). The tissues were weighed and 20 mg tissue/mL homogenate of brain samples was prepared in phosphate buffer (pH 8.0). The homogenates were centrifuged at 10,000 rpm for 10 min at 4 °C, and the resulting supernatant was used for the estimation of anti-cholinesterase activity following Ellman’s and antioxidants assays.
(§3) Ex vivo analysis of cholinesterase inhibitory potentials was also measured to check the cholinergic hypo function in animal model using the isolated compound CGA and CHF extract.

BChE = target: T3, BChE (Mus musculus, UniProt Q03311); assay type: in vivo; settings: ex vivo, NORT animals, vs scopolamine treated group
T3 construct: supernatants were collected from homogenized part of brain tissues; from tissue; host or cells: mouse frontal cortex and hippocampus homogenate supernatant
Protocol: as §2, §3

[4] = Ex vivo brain DPPH free radicals scavenging activity; assay type: in vivo, mice
Protocol: as §2

[5] = vs scopolamine (1 mg/kg) group, CHF. Ext 200 mg/kg, CGA 10 and 30 mg/kg, donepezil 2 mg/kg

T1 sequence (O42275 24-633): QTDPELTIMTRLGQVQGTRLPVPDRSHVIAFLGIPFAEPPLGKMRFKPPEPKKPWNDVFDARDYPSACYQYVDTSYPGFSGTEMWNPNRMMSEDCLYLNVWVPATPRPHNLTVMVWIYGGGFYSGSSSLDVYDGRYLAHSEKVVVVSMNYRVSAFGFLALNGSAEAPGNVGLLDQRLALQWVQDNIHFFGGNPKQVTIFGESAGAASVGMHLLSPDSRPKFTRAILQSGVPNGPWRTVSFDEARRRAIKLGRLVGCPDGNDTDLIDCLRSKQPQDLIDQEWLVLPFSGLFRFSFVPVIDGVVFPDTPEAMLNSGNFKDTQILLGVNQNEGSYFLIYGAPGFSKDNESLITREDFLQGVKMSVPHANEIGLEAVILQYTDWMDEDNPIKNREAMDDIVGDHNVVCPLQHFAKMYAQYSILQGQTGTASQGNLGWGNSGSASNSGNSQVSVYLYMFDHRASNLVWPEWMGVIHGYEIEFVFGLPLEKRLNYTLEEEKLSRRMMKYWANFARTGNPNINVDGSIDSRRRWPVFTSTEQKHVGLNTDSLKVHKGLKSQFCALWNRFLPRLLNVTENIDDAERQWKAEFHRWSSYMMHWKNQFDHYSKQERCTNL
T3 sequence (Q03311 30-603): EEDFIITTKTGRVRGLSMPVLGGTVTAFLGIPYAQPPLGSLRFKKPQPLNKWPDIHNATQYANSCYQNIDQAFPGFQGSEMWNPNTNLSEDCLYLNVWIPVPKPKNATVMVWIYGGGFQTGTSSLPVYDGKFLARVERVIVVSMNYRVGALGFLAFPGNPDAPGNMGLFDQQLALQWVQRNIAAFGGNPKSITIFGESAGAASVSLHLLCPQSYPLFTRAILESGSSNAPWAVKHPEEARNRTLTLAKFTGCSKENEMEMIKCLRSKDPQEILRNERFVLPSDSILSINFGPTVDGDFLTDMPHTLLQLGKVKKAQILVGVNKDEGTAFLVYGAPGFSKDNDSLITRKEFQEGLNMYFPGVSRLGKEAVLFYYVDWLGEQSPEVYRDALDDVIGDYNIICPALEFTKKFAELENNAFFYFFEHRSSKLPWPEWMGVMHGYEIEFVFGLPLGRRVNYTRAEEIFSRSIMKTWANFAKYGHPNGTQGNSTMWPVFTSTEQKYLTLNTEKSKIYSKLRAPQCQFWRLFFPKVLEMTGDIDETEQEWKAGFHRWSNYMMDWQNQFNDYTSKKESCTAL

Compound: O=C(/C=C/c1ccc(O)c(O)c1)O[C@@H]1C[C@](O)(C(=O)O)C[C@@H](O)[C@H]1O [Compound-I, Chlorogenic acid]
- % AChE Mean ± SEM ([1]; 31.05 µg/mL): 50±0.4^ ns %
- % AChE Mean ± SEM ([1]; 62.5 µg/mL): 59±0.3 %
- % AChE Mean ± SEM ([1]; 125 µg/mL): 68±0.4 %
- % AChE Mean ± SEM ([1]; 250 µg/mL): 76±0.5 %
- % AChE Mean ± SEM ([1]; 500 µg/mL): 82±0.1 %
- % AChE Mean ± SEM ([1]; 1000 µg/mL, listed as Compound -I): 90±0.2^ns %
- % AChE Mean ± SEM ([1]; 1000 µg/mL, listed as Compound I): 90 ± 0.2%
- IC50 ([1]; linear regression, read-out: AChE IC50 (converted)): 87.5 µM
- dose range that remained safe and nontoxic (mice): up to 300 mg/kg
- escape latency ([2]; day 1-5, vs scopolamine treated group): significant decline (p < 0.001)
- total numbers of entries into arms ([2]; treated groups compared to control group): non-significant (p > 0.05) decrease
- percentage of alternate arm returns [2, 5]: significant (*p<0.05; **p < 0.01) increase
- percentage of same arm returns [2, 5]: significant (p < 0.01) reduction
- time for exploration of novel object, test phase, long term memory ([3]; CHF. Ext 100 & 200 mg/kg, CGA 10 & 30 mg/kg, donepezil 2 mg/kg): significant (*p < 0.05, **p < 0.01) increase
- %DI, long term memory ([3]; CHF. Ext 100, 200 mg/kg, CGA 10 & 30 mg/kg, donepezil 2 mg/kg): significant (*p < 0.05, **p < 0.01) increase
- time with novel object, test phase, short term memory ([3]; vs scopolamine group (*p < 0.05, **p < 0.01), CHF. Ext 50, 100, 200 mg/kg, CGA 10 and 30 mg/kg, donepezil 2 mg/kg): more time with novel object
- time for exploration of two objects, sample phase, short term memory ([3]; vs scopolamine treated group): no significant difference
- total time spent exploring the two identical objects, sample phase, long term memory ([3]; vs scopolamine treated group): no significant differences
- % AChE activity in cortex and hippocampus (AChE): significantly (***p < 0.001; **p < 0.01) lower
- % BChE activity in cortex and hippocampus (BChE): significantly (***p < 0.001; **p < 0.01) lower
- % anti-radicals activities (DPPH) in cortex ([4]; NORT animals, cortex): 51.43 ± 2.88%
- % anti-radicals activities (DPPH) in hippocampus ([4]; NORT animals, hippocampus): 65.36 ± 1.45%
- % DPPH inhibition potential in cortex ([4]; Y-maze test animals, frontal cortex): 47.85 ± 2.11%
- % DPPH inhibition potential in hippocampus ([4]; Y-maze test animals, hippocampus): 44.12 ± 1.77%
